Results published in ChEMBL document CHEMBL4138294, “Cybastacines A and B: Antibiotic Sesterterpenes from a Nostoc sp. Cyanobacterium” (2018).

Columns and labels:
Format in all cases: functional
Enterococcus faecium = test: Antibacterial activity against Enterococcus faecium clinical isolate by CLSI M07-A9 protocol based assay
[1] = system: Staphylococcus epidermidis; test: Antibacterial activity against Staphylococcus epidermidis clinical isolate by CLSI M07-A9 protocol based assay
Streptococcus pyogenes = test: Antibacterial activity against Streptococcus pyogenes clinical isolate by CLSI M07-A9 protocol based assay
Nocardia cyriacigeorgica = test: Antibacterial activity against Nocardia cyriacigeorgica clinical isolate by CLSI M07-A9 protocol based assay
Enterococcus faecalis = test: Antibacterial activity against Enterococcus faecalis clinical isolate by CLSI M07-A9 protocol based assay
Nocardia carnea = test: Antibacterial activity against Nocardia carnea clinical isolate by CLSI M07-A9 protocol based assay
Tsukamurella pulmonis = test: Antibacterial activity against Tsukamurella pulmonis clinical isolate by CLSI M07-A9 protocol based assay
[2] = system: Mycobacteroides abscessus; test: Antibacterial activity against Mycobacterium abscessus clinical isolate by CLSI M07-A9 protocol based assay
Staphylococcus aureus = test: Antibacterial activity against Staphylococcus aureus clinical isolate by CLSI M07-A9 protocol based assay

Row | Structure (SMILES) | MIC (Enterococcus faecium) [µg/mL] | MIC [1] [µg/mL] | MIC (Streptococcus pyogenes) [µg/mL] | MIC (Nocardia cyriacigeorgica) [µg/mL] | MIC (Enterococcus faecalis) [µg/mL] | MIC (Nocardia carnea) [µg/mL] | MIC (Tsukamurella pulmonis) [µg/mL] | MIC [2] [µg/mL] | MIC (Staphylococcus aureus) [µg/mL]
1 | CC1(C)CCC[C@]2(C)C3=C(CC[C@@H]12)[C@@]1(C)CC[C@@]2(C)NC(=N)NC[C@@H]2[C@@]1(C)C[C@H]3O | ≤ 32 | ≤ 32 | ≤ 32 | ≤ 16 | ≤ 32 | ≤ 16 | ≤ 8 | ≤ 16 | ≤ 32
2 | CC1(C)CCC[C@]2(C)[C@@H]3C(=CC[C@@H]12)[C@@]1(C)CC[C@@]2(C)NC(=N)NC[C@@H]2[C@@]1(C)C[C@H]3O | ≤ 4 | ≤ 4 | ≤ 4 | ≤ 4 | ≤ 4 | ≤ 4 | ≤ 2 | ≤ 4 | ≤ 4
3 | C[C@@H](O)[C@H]1C(=O)N2C(C(=O)O)=C(SCCNC=N)C[C@H]12 [IMIPENEM ANHYDROUS] |  |  |  | ≤ 8 |  | ≤ 8 | ≤ 8 | ≤ 8 | 
4 | CN[C@H](CC(C)C)C(=O)N[C@H]1C(=O)N[C@@H](CC(N)=O)C(=O)N[C@H]2C(=O)N[C@H]3C(=O)N[C@H](C(=O)N[C@H](C(=O)O)c4cc(O)cc(O)c4-c4cc3ccc4O)[C@H](O)c3ccc(c(Cl)c3)Oc3cc2cc(c3O[C@@H]2O[C@H](CO)[C@@H](O)[C@H](O)[C@H]2O[C@H]2C[C@](C)(N)[C@H](O)[C@H](C)O2)Oc2ccc(cc2Cl)[C@H]1O [VANCOMYCIN] | ≤ 8 | ≤ 8 | ≤ 16 |  | ≤ 8 |  |  |  | ≤ 8
